Reference: the OPERA property sets (Mansouri et al. 2018)
Peptide text beside a SMILES is read from it. * marks the point of attachment. NHtBu = CC(C)(C)N*

Compound | logP
CCCOc1ccc(O)cc1 | 2.33
CCN(CC)c1nc(Cl)nc(NC(C)C)n1 | 3.94
NC(=O)c1cccnc1 | -0.37
COC(=O)COc1ccccc1C | 2.08
CN(C)C#N | -0.15
CN(C)C(N(C)C)=S(I)c1cc(Cl)c(Cl)cc1Cl (stereo not given) | 0.68
CC(=O)NC(C)C(=O)NC(Cc1c[nH]c2ccccc12)C(=O)NC(C)C(=O)NC(C)(C)C (stereo not drawn) (Ac-Ala-Trp-Ala-NHtBu; configuration not given here) | 1.26
Nc1c(S(=O)(=O)O)ccc2ccccc12 | -0.97
CCOC(C)OCC | 0.84
Nc1ccc(S(=O)(=O)c2ccc(N)cc2)cc1 | 0.97
S=C1CCCN1 | -0.05
Cc1ccccc1OCC(=O)NNC(C)C | 1.83
COc1cccc(OC)c1C(=O)O | 0.66
CCC1(C2=CCCCC2)C(=O)NC(=O)N(C)C1=O (stereo not given) | 2.25
CC(=O)Nc1cccs1 | 1.1
CC(=O)Nc1cn[nH]c1 | -0.38
C#CCN(CC#C)CC#C | 1.27
CN(C)C(=O)Oc1ccccc1[N+](=O)[O-] | 1.35
CC(C(=O)O)c1ccc(N2CC3=C(CCCC3)C2=O)cc1 (stereo not given) | 3.07
NC(=O)c1cnc2ccccc2n1 | 0.98
CC(C)(C)C(=O)Nc1ccccc1 | 1.99
CCOP(=S)(OCC)O/N=C(\C#N)c1ccccc1 | 4.39
O=C(Nc1ncnc2c1ncn2[C@H]1C[C@H](O)[C@@H](CO)O1)c1ccccc1 | 0.22
NNC(=O)c1ccccc1Br | 0.26
NNC(=O)c1ccnc(N)c1 | -0.98
Cc1cnccn1 | 0.21
CS(=O)(=O)c1cccc(-c2nc(N)nc(N)n2)c1 | 0.29

Compound | logP
CCOC(=O)[C@H](O)[C@@H](O)C(=O)OCC | -0.29
COCCOC | -0.21
COc1ccc(OC)c(CC(C)N)c1 (stereo not given) | 1.72
NC(=O)c1ccc(C(O)C(CO)NC(=O)C(Cl)Cl)cc1 (stereo not given) | -0.48
O=C(O)Cc1ccccc1Nc1cccc(Cl)c1Cl | 4.86
O=NN(CCCl)C(=O)NC1CCCCC1Cl (stereo not given) | 2.73
NC(Cc1ccc(O)c(O)c1)C(=O)OCc1cccc(C(F)(F)F)c1 (stereo not given) | 2.29
CCOC(=O)NC(O)C(Cl)(Cl)Cl (stereo not given) | 1.84
Clc1ccc(-c2cc(Cl)c(Cl)c(Cl)c2Cl)c(Cl)c1 | 7.44
O=C1NC(=O)[C@@]2(CCOc3ccc(F)cc32)N1 | 0.78
CNC(=O)N(C)c1ccccc1 | 1.02
COc1cc(CC(=O)O)ccc1OC(C)C | 1.75
O=C(O)c1cccc(F)c1 | 2.15
CC(=O)Oc1c[nH]c2ccccc12 | 2.01
CCSc1ccc2c(c1)N(CCCN1CCN(C)CC1)c1ccccc1S2 | 5.41
CCCCCOC(=O)c1cc(O)c(O)c(O)c1 | 2.67
CCN | -0.13
CCCCOCN(C(=O)CCl)c1c(CC)cccc1CC | 4.5
COc1ccc(NS(=O)(=O)c2ccc(N)cc2)nn1 | 0.32
CC(=O)Nc1ccc2cccnc2c1 | 1.55
Cc1ccccc1C(=O)O | 2.46
CC1=C(N2CC2)C(=O)C(CCOC(N)=O)=C(N2CC2)C1=O | 0.16
CCCc1ccc([N+](=O)[O-])cc1 | 3.45
Cc1ccc(S(=O)(=O)F)cc1 | 2.74
Cc1ccc(C)c(O)c1 | 2.33
CC(C)N1CCOC(c2ccccc2)C1 (stereo not given) | 2.3
Clc1nnnn1-c1ccccc1 | 1.48

Compound | logP
Nc1ccc2nccnc2c1 | 0.9
CCCC(=NOCC)C1C(=O)CC2(CCC(C)C2)OC1=O (stereo not given) | 3.66
Cc1cccc(Cl)c1 | 3.28
CCOP(=O)(OCC)Oc1ccccc1 | 1.64
CC(C)OC(=O)c1ccccc1C(=O)OC(C)C | 2.83
CNC(=O)Oc1ccccc1Cl | 1.64
COc1cc(CC(C)N)c(OC)cc1C (stereo not given) | 2.24
Nc1nncs1 | -0.57
CNC(=O)Oc1ccc(Cl)cc1 | 2.01
CN(C)C(=O)OCc1ccc(C(F)(F)F)cc1 | 3.08
NS(=O)(=O)c1ccc(S(=O)(=O)CCO)s1 | -0.54
CCOC(=O)c1cccs1 | 2.33
COC(=O)CNC(=O)c1ccc(N)cc1 | -0.23
CC1CC2C3CCC4=CC(=O)C=CC4(C)C3(F)C(=O)CC2(C)C1(O)C(=O)CCl (stereo not given) | 2.61
N#Cc1ccc2nc(N)[nH]c2c1 | 1.13
O=[N+]([O-])c1nccn1C1OC(CI)C(O)C1O (stereo not given) | 0.32
OCc1cccc(O)c1 | 0.49
CN(N=O)C(=O)Nc1ccccc1 | 1.72
CC1=NCCN1 | 0.52
Brc1cccs1 | 2.75
Cn1c(N)nc2cc(Cl)ccc21 | 2.09
FC(F)(F)c1nc2c(Cl)cccc2[nH]1 | 2.93
O=c1[nH]c2ccccc2n1C1CCN(CCCC(c2ccc(F)cc2)c2ccc(F)cc2)CC1 | 6.3
CCO[Si](OCC)(OCC)c1ccccc1 | 2.99
C=CCC1(CC(=C)Br)C(=O)NC(=O)N(C)C1=O (stereo not given) | 1.78
CCCCCF | 2.33
